Measured values published in patent publication US20140081017A1, “Histone Deacetylase Inhibitors for Enhancing Activity of Antifungal Agents” (METHYLGENE INC., priority 2012, published 2014).
Values after ≈ are worked out from the molar mass of the structure shown. Where two headings read alike, the source gives them in different places.

How the values were obtained:
Candida albicans = experiment: Minimal Inhibitory Concentration (MIC) assay, broth microdilution per CLSI; assay type: cell-based; settings: Candida albicans, read-out: Minimum Inhibitory Concentrations against Yeast Isolates, Candida albicans;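 further: two read times 24 hr and 48 hr of incubation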
Summary of the method: (§1)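 Read-out is visual: MIC is the lowest compound concentration preventing visible growth after approximately 24-48 hr at 35° C. Testing used CLSI microdilution in MOPS-buffered RPMI (pH 7.0) with serial 1:1 compound dilutions made in DMSO.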

Candida parapsilosis = experiment: as above; assay type: cell-based; settings: Lodderomyces parapsilosis, read-out: Minimum Inhibitory Concentrations against Yeast Isolates, Candida parapsilosis;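 further: two read times 24 hr and 48 hr of incubation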
Summary of the method: as §1

Candida glabrata = experiment: as above; assay type: cell-based; settings: Nakaseomyces glabratus, read-out: Minimum Inhibitory Concentrations against Yeast Isolates, Candida glabrata;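 further: two read times 24 hr and 48 hr of incubation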
Summary of the method: as §1

C. glabrata = experiment: Checkerboard FIC assay in combination with fluconazole (MIC alone and in combination, FICI); assay type: cell-based, Candida glabrata; settings: for FICI of combination resulting in fluconazole MIC of: 2 ug/mL / FICI of combination resulting in fluconazole MIC of: 4 ug/mL / FICI of combination resulting in fluconazole MIC of: 8 ug/mL: FICI calculated using a fluconazole MIC of 16 μg/mL; for FICI of combination resulting in fluconazole MIC of: 2 ug/mL (value in parenthesis) / FICI of combination resulting in fluconazole MIC of: 4 ug/mL (value in parenthesis) / FICI of combination resulting in fluconazole MIC of: 8 ug/mL (value in parenthesis): FICI using a fluconazole MIC of 128 μg/mL; for MIC: Nakaseomyces glabratus; for Multiple of compound MIC to synergize fluconazole MIC to 2 ug/mL / Multiple of compound MIC to synergize fluconazole MIC to 4 ug/mL / Multiple of compound MIC to synergize fluconazole MIC to 8 ug/mL: concentration in combination as multiple of the compound's MIC alone; for Multiple of compound MIC to synergize fluconazole MIC to 2 ug/mL: fluconazole MIC 2 ug/mL; for Multiple of compound MIC to synergize fluconazole MIC to 4 ug/mL: fluconazole MIC 4 ug/mL; for Multiple of compound MIC to synergize fluconazole MIC to 8 ug/mL: fluconazole MIC 8 ug/mL; for Concentration of Methylgene compound to synergize fluconazole MIC to 2 ug/mL / Concentration of Methylgene compound to synergize fluconazole MIC to 4 ug/mL / Concentration of Methylgene compound to synergize fluconazole MIC to 8 ug/mL: in combination with fluconazole; for Concentration of Methylgene compound to synergize fluconazole MIC to 2 ug/mL: fluconazole MIC lowered to 2 ug/mL; for Concentration of Methylgene compound to synergize fluconazole MIC to 4 ug/mL: fluconazole MIC lowered to 4 ug/mL; for Concentration of Methylgene compound to synergize fluconazole MIC to 8 ug/mL: fluconazole MIC lowered to 8 ug/mL
Summary of the method: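 A fluconazole synergy checkerboard was run against C. glabrata in MOPS-buffered RPMI (pH 7.0) for about 48 h at 35 °C. Each agent was diluted 2-fold, with one row and one column holding each agent alone for MIC determination. FICI was calculated from these MICs, using a 0.5 McFarland inoculum diluted 1:100 per CLSI.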

[1] = 24 hr reading (first value of cell 24 hr/48 hr)
[2] = 48 hr reading (second value of cell 24 hr/48 hr)
[3] = MIC of the example compound alone against C. glabrata in the checkerboard assay, approximately 48 hr, read-out: Methylgene MIC
[4] = test compound alone, C. glabrata, approx. 48 hr at 35° C., read-out: Compound MIC

O=C(Cc1ccc(CCCCc2ccc(O)cc2)cc1)NO [Example 15, N-hydroxy-2-(4-(4-(4-hydroxyphenyl)butyl)phenyl)acetamide]
MIC (Candida albicans; [1]): > 16 µg/mL
MIC (Candida albicans; [2]): > 16 µg/mL
MIC (Candida parapsilosis; [1]): > 16 µg/mL
MIC (Candida parapsilosis; [2]): > 16 µg/mL
MIC (Candida glabrata; [1]): > 8 µg/mL
MIC (Candida glabrata; [2]): > 8 µg/mL
FICI of combination resulting in fluconazole MIC of: 2 ug/mL (C. glabrata; C. glabrata): 0.375
FICI of combination resulting in fluconazole MIC of: 4 ug/mL (C. glabrata; C. glabrata): 0.500
FICI of combination resulting in fluconazole MIC of: 8 ug/mL (C. glabrata; C. glabrata): 0.625
FICI of combination resulting in fluconazole MIC of: 2 ug/mL (value in parenthesis) (C. glabrata; C. glabrata): 0.266
FICI of combination resulting in fluconazole MIC of: 4 ug/mL (value in parenthesis) (C. glabrata; C. glabrata): 0.281
FICI of combination resulting in fluconazole MIC of: 8 ug/mL (value in parenthesis) (C. glabrata; C. glabrata): 0.188
MIC (C. glabrata; [3]): 8 µg/mL
MIC (C. glabrata; [4]): 8 µg/mL
Multiple of compound MIC to synergize fluconazole MIC to 2 ug/mL (C. glabrata): (¼x)
Multiple of compound MIC to synergize fluconazole MIC to 4 ug/mL (C. glabrata): (¼x)
Multiple of compound MIC to synergize fluconazole MIC to 8 ug/mL (C. glabrata): (⅛x)
Concentration of Methylgene compound to synergize fluconazole MIC to 2 ug/mL (C. glabrata; C. glabrata): 2 µg/mL
Concentration of Methylgene compound to synergize fluconazole MIC to 4 ug/mL (C. glabrata; C. glabrata): 2 µg/mL
Concentration of Methylgene compound to synergize fluconazole MIC to 8 ug/mL (C. glabrata; C. glabrata): 1 µg/mL

O=C(Cc1ccc(CCCCc2ccc(F)cc2F)cc1)NO [Example 3, 2-(4-(4-(2,4-difluorophenyl)butyl)phenyl)-N-hydroxyacetamide]
MIC (Candida albicans; [1]): 0.5 µg/mL (≈ 1.57 µM)
MIC (Candida albicans; [2]): 0.5 µg/mL (≈ 1.57 µM)
MIC (Candida parapsilosis; [1]): 0.25 µg/mL (≈ 0.783 µM)
MIC (Candida parapsilosis; [2]): 0.5 µg/mL (≈ 1.57 µM)
MIC (Candida glabrata; [1]): 0.5 µg/mL (≈ 1.57 µM)
MIC (Candida glabrata; [2]): 0.5 µg/mL (≈ 1.57 µM)
FICI of combination resulting in fluconazole MIC of: 2 ug/mL (C. glabrata; C. glabrata): 0.563
FICI of combination resulting in fluconazole MIC of: 4 ug/mL (C. glabrata; C. glabrata): 0.625
FICI of combination resulting in fluconazole MIC of: 8 ug/mL (C. glabrata; C. glabrata): 0.490
FICI of combination resulting in fluconazole MIC of: 2 ug/mL (value in parenthesis) (C. glabrata; C. glabrata): 0.516
FICI of combination resulting in fluconazole MIC of: 4 ug/mL (value in parenthesis) (C. glabrata; C. glabrata): 0.531
FICI of combination resulting in fluconazole MIC of: 8 ug/mL (value in parenthesis) (C. glabrata; C. glabrata): 0.303
MIC (C. glabrata; [3]): 0.5 µg/mL
MIC (C. glabrata; [4]): 0.5 µg/mL
Multiple of compound MIC to synergize fluconazole MIC to 2 ug/mL (C. glabrata): (½x)
Multiple of compound MIC to synergize fluconazole MIC to 4 ug/mL (C. glabrata): (½x)
Multiple of compound MIC to synergize fluconazole MIC to 8 ug/mL (C. glabrata): (¼x)
Concentration of Methylgene compound to synergize fluconazole MIC to 2 ug/mL (C. glabrata; C. glabrata): 0.25 µg/mL
Concentration of Methylgene compound to synergize fluconazole MIC to 4 ug/mL (C. glabrata; C. glabrata): 0.25 µg/mL
Concentration of Methylgene compound to synergize fluconazole MIC to 8 ug/mL (C. glabrata; C. glabrata): 0.12 µg/mL

O=C(Cc1ccc(CCCCc2ccc(C(=O)N3CCN(CCn4ccnc4)CC3)cc2)cc1)NO [Example 21, 2-(4-(4-(4-(4-(2-(1H-imidazol-1-yl)ethyl)piperazine-1-carbonyl)phenyl)butyl)phenyl)-N-hydroxyacetamide]
MIC (Candida albicans; [1]): > 64 µg/mL
MIC (Candida albicans; [2]): > 64 µg/mL
MIC (Candida parapsilosis; [1]): > 64 µg/mL
MIC (Candida parapsilosis; [2]): > 64 µg/mL
MIC (Candida glabrata; [1]): 16 µg/mL (≈ 32.7 µM)
MIC (Candida glabrata; [2]): 32 µg/mL (≈ 65.4 µM)
FICI of combination resulting in fluconazole MIC of: 2 ug/mL (C. glabrata; C. glabrata): 0.313
FICI of combination resulting in fluconazole MIC of: 4 ug/mL (C. glabrata; C. glabrata): 0.250
FICI of combination resulting in fluconazole MIC of: 8 ug/mL (C. glabrata; C. glabrata): 0.375
FICI of combination resulting in fluconazole MIC of: 2 ug/mL (value in parenthesis) (C. glabrata; C. glabrata): 0.266
FICI of combination resulting in fluconazole MIC of: 4 ug/mL (value in parenthesis) (C. glabrata; C. glabrata): 0.156
FICI of combination resulting in fluconazole MIC of: 8 ug/mL (value in parenthesis) (C. glabrata; C. glabrata): 0.188
MIC (C. glabrata; [3]): 16 µg/mL
MIC (C. glabrata; [4]): 16 µg/mL
Multiple of compound MIC to synergize fluconazole MIC to 2 ug/mL (C. glabrata): (¼x)
Multiple of compound MIC to synergize fluconazole MIC to 4 ug/mL (C. glabrata): (⅛X)
Multiple of compound MIC to synergize fluconazole MIC to 8 ug/mL (C. glabrata): (⅛X)
Concentration of Methylgene compound to synergize fluconazole MIC to 2 ug/mL (C. glabrata; C. glabrata): 4 µg/mL
Concentration of Methylgene compound to synergize fluconazole MIC to 4 ug/mL (C. glabrata; C. glabrata): 2 µg/mL
Concentration of Methylgene compound to synergize fluconazole MIC to 8 ug/mL (C. glabrata; C. glabrata): 2 µg/mL

CC(C(=O)NO)c1ccc(CCC(O)Cc2ccccc2)cc1 (stereo not shown) [Example 58, N-hydroxy-2-(4-(3-hydroxy-4-phenylbutyl)phenyl)propanamide]
MIC (Candida albicans; [1]): > 64 µg/mL
MIC (Candida albicans; [2]): > 64 µg/mL
MIC (Candida parapsilosis; [1]): > 64 µg/mL
MIC (Candida parapsilosis; [2]): > 64 µg/mL
MIC (Candida glabrata; [1]): 8 µg/mL (≈ 25.5 µM)
MIC (Candida glabrata; [2]): 64 µg/mL (≈ 204 µM)
FICI of combination resulting in fluconazole MIC of: 2 ug/mL (C. glabrata; C. glabrata): 0.188
FICI of combination resulting in fluconazole MIC of: 4 ug/mL (C. glabrata; C. glabrata): 0.250
FICI of combination resulting in fluconazole MIC of: 8 ug/mL (C. glabrata; C. glabrata): 0.375
FICI of combination resulting in fluconazole MIC of: 2 ug/mL (value in parenthesis) (C. glabrata; C. glabrata): 0.141
FICI of combination resulting in fluconazole MIC of: 4 ug/mL (value in parenthesis) (C. glabrata; C. glabrata): 0.156
FICI of combination resulting in fluconazole MIC of: 8 ug/mL (value in parenthesis) (C. glabrata; C. glabrata): 0.188
MIC (C. glabrata; [3]): > 16 µg/mL
MIC (C. glabrata; [4]): > 16 µg/mL
Concentration of Methylgene compound to synergize fluconazole MIC to 2 ug/mL (C. glabrata; C. glabrata): 4 µg/mL
Concentration of Methylgene compound to synergize fluconazole MIC to 4 ug/mL (C. glabrata; C. glabrata): 4 µg/mL
Concentration of Methylgene compound to synergize fluconazole MIC to 8 ug/mL (C. glabrata; C. glabrata): 4 µg/mL

COc1ccc(CCCCc2ccc(CC(=O)NO)cc2)cc1OC [Example 13, 2-(4-(4-(3,4-dimethoxyphenyl)butyl)phenyl)-N-hydroxyacetamide]
MIC (Candida albicans; [1]): 8 µg/mL (≈ 23.3 µM)
MIC (Candida albicans; [2]): 16 µg/mL (≈ 46.6 µM)
MIC (Candida parapsilosis; [1]): 16 µg/mL (≈ 46.6 µM)
MIC (Candida parapsilosis; [2]): > 16 µg/mL
MIC (Candida glabrata; [1]): 2 µg/mL (≈ 5.82 µM)
MIC (Candida glabrata; [2]): 4 µg/mL (≈ 11.6 µM)
FICI of combination resulting in fluconazole MIC of: 2 ug/mL (C. glabrata; C. glabrata): 0.313
FICI of combination resulting in fluconazole MIC of: 4 ug/mL (C. glabrata; C. glabrata): 0.375
FICI of combination resulting in fluconazole MIC of: 8 ug/mL (C. glabrata; C. glabrata): 0.375
FICI of combination resulting in fluconazole MIC of: 2 ug/mL (value in parenthesis) (C. glabrata; C. glabrata): 0.266
FICI of combination resulting in fluconazole MIC of: 4 ug/mL (value in parenthesis) (C. glabrata; C. glabrata): 0.281
FICI of combination resulting in fluconazole MIC of: 8 ug/mL (value in parenthesis) (C. glabrata; C. glabrata): 0.188
MIC (C. glabrata; [3]): 4 µg/mL
MIC (C. glabrata; [4]): 4 µg/mL
Multiple of compound MIC to synergize fluconazole MIC to 2 ug/mL (C. glabrata): (¼x)
Multiple of compound MIC to synergize fluconazole MIC to 4 ug/mL (C. glabrata): (¼x)
Multiple of compound MIC to synergize fluconazole MIC to 8 ug/mL (C. glabrata): (⅛x)
Concentration of Methylgene compound to synergize fluconazole MIC to 2 ug/mL (C. glabrata; C. glabrata): 1 µg/mL
Concentration of Methylgene compound to synergize fluconazole MIC to 4 ug/mL (C. glabrata; C. glabrata): 1 µg/mL
Concentration of Methylgene compound to synergize fluconazole MIC to 8 ug/mL (C. glabrata; C. glabrata): 0.5 µg/mL
